The record followed here is PubChem BioAssay AID179 (DTP/NCI, 2004).

Usually EC50 stands for the concentration needed to bring the measured effect to its halfway point. By IC50 is commonly meant the concentration that gives 50% inhibition. A higher IC50 goes with weaker potency in that assay.

The source made the active and inactive calls.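 Rule for the calls: active = compounds giving half or more protection of infected cells from virus-caused growth loss, again on retest; inactive = the rest.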 Where a SMILES comes first, the peptide text is derived from it.

This experiment deals with CEM cells HIV-1 protection, formazan growth assay. As to the kind of experiment: NCI AIDS Antiviral Assay. As to conditions: for IC50: measured here: growth of uninfected CEM cells. In outline:
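Screen of anti-HIV-1 activity in human CEM cells using a formazan-based growth measurement at five drug concentrations. Hits with 50% or greater protection were repeated, and confirmation required reproducible complete protection.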

Turning to `CCNC(=O)COc1cc2c(O)c3c(O)c(C)c4c(c13)C(=O)C(C)(O/C=C/C(OC)C(C)C(OC(C)=O)C(C)C(O)C(C)C(O)C(C)/C=C/C=C(\C)C(=O)N2)O4` (stereo not given), the EC50 is above 200 µM and the concentration for half-maximal inhibition (IC50) was determined as 83.2 µM. `COc1ccc(/S(C)=N/S(=O)(=O)c2ccc(C)cc2)cc1` (stereo not given): the EC50 is above 288 µM and the IC50 turned out to be 263 µM. Regarding `CSCC1Cc2c(cc3c(c2O)C(=O)c2ccccc2C3=O)O1` (stereo not given), the outcome was inactive. As for `COc1ccc2c(c1)OCC1Cc3ccccc3OC21` (stereo not given), the EC50 was above 200 µM and the 50% inhibitory concentration (IC50) came out at 53.7 µM.

For the compound `NNC(=O)C1C(C(=O)NN)C2C3C=CC(C4C(=O)NC(=O)C34)C12` (stereo not given), the EC50 was above 200 µM and the half-maximal inhibitory concentration (IC50) was above 200 µM. As for `CC(=O)c1cc(N=Nc2ccc(/C=C/c3ccc(N=Nc4cc(O)c5ncccc5c4C(C)=O)cc3S(=O)(=O)O)c(S(=O)(=O)O)c2)c(O)c2ncccc12`, the EC50 is above 29.5 µM and the IC50 was 28.8 µM. As for `CC(=O)NCCSS(=O)(=O)CCCCS(=O)(=O)SCCNC(C)=O`, the EC50 is 117 µM and the IC50 came out at 214 µM.

In the case of `Cc1cc(C)nc(NS(=O)(=O)c2ccc(Nc3c4ccc(Cl)cc4nc4c(C(=O)NCCN(C)C)cccc34)cc2)n1`, the EC50 was above 214 µM and the 50% inhibitory concentration (IC50) amounted to 89.1 µM. As for `CC(O)c1ccc[n+](Cc2ccccc2)c1` (stereo not given), the EC50 is above 1000 µM and the half-inhibitory concentration (IC50) worked out at 776 µM.

Turning to `OCCSCC/C(=N\N=C(/CCSCCO)c1ccccc1)c1ccccc1`, the EC50 was above 87.1 µM and the half-inhibitory concentration (IC50) was found to be 34.7 µM. Turning to `COC1=C(OC)C(O)(c2ccccc2)C1=O` (stereo not given), the result was inactive.

On to `CCCCc1c(N(C)C)c(OC(C)=O)c(-c2cn(C)c3ccccc23)oc1=O`, for which the EC50 was above 200 µM and the IC50 is 31.6 µM. For `COC1(OC)CC2C=C(S(=O)(=O)c3ccccc3)C1N(Cc1ccccc1)C2=O` (stereo not given), the outcome was inactive.

For the compound `C[C@H]1[C@H](NC(=O)/C(=N\OC(C)(C)C(=O)O)c2csc(N)n2)C(=O)N1S(=O)(=O)O`, the EC50 is above 575 µM and the IC50 was above 575 µM.

For the compound `COc1ccc2[nH]c3c4c(cc(-c5ccccc5)c3c2c1)C(=O)N(c1ccccc1)C4=O`, the EC50 was above 9.12 µM and the 50% inhibitory concentration (IC50) is above 9.12 µM.

Consider `CSc1nc[nH]c1C(N)=S`, for which the EC50 was above 200 µM and the IC50 is above 200 µM. As to `NC(=O)C(F)(F)C(N)=O`, the EC50 is above 200 µM and the IC50 is above 200 µM.

As to `CC(C)CC(N)C(=O)NC(CC(=O)O)C(=O)NC(CCCCN)C(=O)NC(C)C(=O)NC(CO)C(=O)NC(Cc1ccc(O)cc1)C(=O)NC(CO)C(=O)NC(C(=O)NC(CC(N)=O)C(=O)O)C(C)O` (stereo not given) (H-LDKASYSTN-OH; configuration not given here), the EC50 was above 50.1 µM and the IC50 is above 50.1 µM. As to `NC(N)=N/N=C(\c1ccc(F)cc1)C1CC1`, the EC50 was above 200 µM and the IC50 was determined as 33.9 µM. `CC(=O)OCc1cc(OC(C)=O)cnc1COC(C)=O`: the EC50 was above 468 µM and the IC50 is above 468 µM.

Consider `COc1ccc(C2CC(=O)c3cc(OC)ccc3O2)cc1` (stereo not given), for which the EC50 is above 200 µM and the IC50 is above 200 µM. As to `Cc1cc(=O)oc2cc(OCc3nc4ccccc4c(=O)o3)ccc12`, the outcome was inactive. For the compound `O=[N+]([O-])/C=C/COCc1cc2c(cc1Br)OCO2`, the EC50 is above 200 µM and the 50% inhibitory concentration (IC50) stood at 9.33 µM.

Take `O=C(NC1CCN(Cc2ccccc2)CC1)c1cccc(I)c1`: the EC50 is above 200 µM and the 50% inhibitory concentration (IC50) was found to be 33.9 µM. Regarding `CCOC(=O)CCC(NC(=O)c1ccc(OCc2ccc3nc(-c4ccccc4)c(Cl)nc3c2)cc1)C(=O)OCC` (stereo not given), the EC50 is above 200 µM and the 50% inhibitory concentration (IC50) came to 43.7 µM.

In the case of `COc1ccc(C2(OC)Oc3cc(OC)ccc3C(=O)C2(O)O)cc1` (stereo not given), the EC50 was above 200 µM and the half-maximal inhibitory concentration (IC50) was 10.7 µM. Regarding `Cc1cn(C(CCO)CCO)c(=O)[nH]c1=O`, the EC50 was above 200 µM and the half-maximal inhibitory concentration (IC50) is above 200 µM. As for `Cc1c(C)c(C)c2c(c1C)C/C2=N/O`, the EC50 was above 100 µM and the half-maximal inhibitory concentration (IC50) was above 100 µM.

As for `CCCCCCCCCCCC(=O)OCC(C[As](=O)(O)O)OC(=O)CCCCCCCCCCC` (stereo not given), the EC50 is above 200 µM and the 50% inhibitory concentration (IC50) turned out to be 1.82 µM. As to `COc1ccc(-c2c(C#N)c(S)n(NS(=O)(=O)c3ccccc3)c(=O)c2C#N)cc1`, the EC50 was above 200 µM and the IC50 was 12.6 µM.

On to `C/C(CCn1[nH]c(=O)ccc1=O)=N\O`, for which the EC50 is above 1070 µM and the IC50 is above 1070 µM. In the case of `Nc1cc(-c2ccccc2)nn1-c1nsc2ccccc12`, the EC50 was above 17.8 µM and the IC50 is above 17.8 µM. Consider `Cc1ccc2c(c1)-c1c3c(nn1-c1ccccc1)-c1ccccc1SC3O2` (stereo not given), for which the EC50 was above 3.89 µM and the IC50 is above 3.89 µM. For `COc1ccc([N+](=O)[O-])c2c(NCC(O)CO)ccnc12` (stereo not given), the EC50 is above 200 µM and the half-maximal inhibitory concentration (IC50) turned out to be 29.5 µM.

In the case of `COC(=O)/C=C\C(C#N)(C#N)N=Cc1cccc(OC)c1`, the EC50 is above 20 µM and the concentration for half-maximal inhibition (IC50) is 1.26 µM. For `CCn1nc(C)c2c1C(=O)NC(C)C(=O)N2` (stereo not given), in that order: above 200 µM and above 200 µM. For `c1ccc(N=C(N2CCCC2)N(CCN2CCCC2)c2ccccc2)cc1`, in that order: above 200 µM and 9.33 µM. On the same counts, the results for `C/C(=C\c1ccccc1)n1c(=O)cc(C)n1C` are above 200 µM and above 200 µM. For the compound `CN(CCc1ccccn1)C(=S)N/N=C(\c1ccccc1)c1ccccn1`, the EC50 was above 0.2 µM and the IC50 is 0.0132 µM. Turning to `CN1C(=O)OC(c2ccc(Cl)cc2)C1=O` (stereo not given), the EC50 was above 200 µM and the IC50 was above 200 µM. For the compound `O=C(N/C(=C\c1cc(Cl)ccc1Cl)c1nc2[nH]c(=S)[nH]c(=O)c2[nH]1)c1ccccc1`, the EC50 is above 79.4 µM and the IC50 was 21.9 µM. Consider `COC(=O)N1C[C@@]2(C=CC3(CC2)OCCO3)c2ccccc21`, for which the EC50 was above 200 µM and the concentration for half-maximal inhibition (IC50) came out at 3.55 µM.

Consider `c1csc(-c2ccc(-c3ccsc3)s2)c1`, for which the EC50 is above 200 µM and the IC50 was above 200 µM. Turning to `C=C1C(=O)C[C@@]23CCC[C@@]12CC(OCOC)C3` (stereo not given in full), the result was inactive. Consider `COc1cc(C2C3C=CC=C4CC=CC(=C43)C3CCC(=O)N32)cc(OC)c1OC` (stereo not given), for which the EC50 is above 200 µM and the IC50 was above 200 µM. In turn, `O=C(O)c1c(Cl)c(Cl)c(Cl)c(Cl)c1-c1c2ccc(=O)c(O)c-2oc2c(O)c(O)ccc12` gave an EC50 above 83.2 µM and an IC50 of 51.3 µM. Turning to `COc1cc2ccnc(-c3n[nH]c4cc(OC)c(OC)cc34)c2cc1OC`, the result was inactive. For `c1cc(CSP234N5CCN2CCN3CCN4CC5)cc(CSP234N5CCN2CCN3CCN4CC5)c1`, the EC50 was above 100 µM and the IC50 was found to be 25.1 µM. For `O=C(O)CC[C@H](NC(=O)c1ccc(-n2nc3ccc(O)cc3nc2=O)cc1)C(=O)O`, in that order: above 145 µM and above 145 µM. For `CC(=O)O[C@H]1[C@@H]2[C@@H]3[C@@H](C[C@H]1C)[C@@H](C)CO[C@@]1(C)CC/C=C(/C)C[C@@H]2O[C@@H]31`, in that order: above 100 µM and above 100 µM.

As to `S=C1Cc2c(-c3ccccc3)cc(-c3cccc(Cl)c3)nc2-c2ccccc2N1`, the result was inactive.
